{"source": "patent US20160310481A1", "about": "“LAQUINIMOD FOR TREATMENT OF CANNABINOID RECEPTOR TYPE 1(CB1) MEDIATED DISORDERS” (Teva Pharmaceutical Industries, Ltd., priority 2012, published 2016)", "key": {"[1]": {"target": "cannabinoid CB1 receptor (Mus musculus, UniProt P47746)", "sequence (P47746 whole entry)": "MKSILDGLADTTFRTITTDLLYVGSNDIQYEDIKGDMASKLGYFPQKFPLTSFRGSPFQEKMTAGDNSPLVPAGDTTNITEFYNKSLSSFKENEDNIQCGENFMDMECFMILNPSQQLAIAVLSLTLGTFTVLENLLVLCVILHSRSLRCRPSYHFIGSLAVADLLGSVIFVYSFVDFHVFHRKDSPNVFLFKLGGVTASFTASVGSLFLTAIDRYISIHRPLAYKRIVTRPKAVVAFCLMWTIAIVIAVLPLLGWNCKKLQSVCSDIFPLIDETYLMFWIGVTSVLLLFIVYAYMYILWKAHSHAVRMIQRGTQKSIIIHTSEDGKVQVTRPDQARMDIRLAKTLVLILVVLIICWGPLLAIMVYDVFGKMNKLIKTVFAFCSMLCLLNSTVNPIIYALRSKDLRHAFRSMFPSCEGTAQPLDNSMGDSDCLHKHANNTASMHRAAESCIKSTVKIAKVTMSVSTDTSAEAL", "conditions": "HU210 1 μM", "experimental": "Recordings were performed between 25 and 35 dpi. Mice were killed by cervical dislocation under halothane anaesthesia, and corticostriatal coronal slices (200 μm) were prepared from fresh tissue blocks of the brain with the use of a vibratome (Centonze et al., 2007, 2009; Rossi et al., 2010a,b). A single slice was then transferred to a recording chamber and submerged in a continuously flowing artificial CSF (ACSF) (34° C., 2-3 ml/min) gassed with 95% O2-5% CO2. The composition of the control ACSF was (in mM): 126 NaCl, 2.5 KCl, 1.2 MgCl2, 1.2 NaH2PO4, 2.4 CaCl2, 11 Glucose, 25 NaHCO3. Recording pipettes were advanced towards individual striatal cells in the slice under positive pressure and visual control (WinVision 2000, Delta Sistemi, Italy) and, on contact, tight GΩ seals were made by applying negative pressure. The membrane patch was then ruptured by suction and membrane current and potential monitored using an Axopatch 1D patch clamp amplifier (Axon Instruments, Foster City, Calif., USA). Whole-cell access resistances measured in voltage clamp were in the range of 5-20 MΩ. Whole-cell patch clamp recordings were made with borosilicate glass pipettes (1.8 mm o.d.; 2-3 MΩ), in voltage-clamp mode, at the holding potential (HP) of −80 mV. […] Synaptic events were stored by using P-CLAMP (Axon Instruments) and analyzed off line on a personal computer with Mini Analysis 5.1 (Synaptosoft, Leonia, N.J., USA) software. […] Offline analysis was performed on spontaneous and miniature synaptic events recorded during fixed time epochs (3-5 min, 3-6 samplings), sampled every 5 or 10 minutes. […]\nFor data presented as mean ±SE, n indicates the number of cells. One to six cells per animal were recorded. […] Multiple comparisons were analysed by one-way ANOVA followed by Tukey's HSD test. Comparisons between two groups were analysed by paired or unpaired Student's t-test. […]"}, "[2]": {"test_system": "glutamatergic transmission in control striatal neurons", "assay": "Bath application on corticostriatal slices of wild type mice: sEPSCs (basal glutamatergic transmission)", "format": "cell-based"}, "[3]": {"test_system": "striatal glutamatergic transmission", "assay": "Whole-cell patch clamp of striatal neurons from EAE mice: glutamate-mediated sEPSCs", "format": "in vivo", "conditions": "LQ-EAE mice 25 mg/kg, n=20; untreated-EAE 4.0±0.2, HC 2.7±0.2"}, "[4]": {"test_system": "GABAergic transmission in control striatal neurons", "assay": "Bath application on corticostriatal slices of wild type mice: sIPSCs (basal GABAergic transmission)", "format": "cell-based"}, "[5]": {"test_system": "human subjects diagnosed with ADHD", "assay": "Human ADHD trial", "format": "in vivo", "conditions": "compared to the control group", "protocol": "Laquinimod is administered to human subjects diagnosed with ADHD."}, "[6]": {"test_system": "rat model of ADHD", "assay": "Rat model of ADHD", "format": "in vivo", "conditions": "compared to control rats", "protocol": "Laqunimod is tested in a rat model of ADHD."}, "[7]": {"test_system": "EAE mice", "assay": "EAE induction and disease evaluation, preventive daily s.c. LQ treatment", "format": "in vivo, C57BL/6 mice", "conditions": "preventive treatment 0-26 dpi, daily s.c. 1-25 mg/kg", "protocol": "Female C57BL/6 mice at 6-8 weeks of age were purchased from Charles River (Calco, Milan, Italy) and housed in pathogen-free conditions. All procedures involving animals were performed according to the guidelines of the San Raffaele Scientific Institute Institutional Animal Care and Use Committee.\nEAE was induced by immunization with 3 subcutaneous injection of 100 μl each, containing a total of 200 μg of myelin oligodendrocyte glycoprotein (MOG) peptide 35-55 (Multiple Peptide System) in incomplete Freund's adjuvant and 8 mg/ml of Mycobacterium tuberculosis (strain H37Ra; Difco). Pertussis toxin (Sigma) (500 ng) was injected on the day of the immunization and again two days later. Body weight and clinical score (0=healthy; 1=limp tail; 2=ataxia and/or paresis of hindlimbs; 3=paralysis of hindlimbs and/or paresis of forelimbs; 4=tetraparalysis; 5=moribund or death) were recorded daily.\nEAE mice were treated once daily by subcutaneous (s.c.) injection of LQ (supplied by Teva Pharmaceutical Industries, Netanya, Israel) (thereafter referred as LQ-EAE). LQ was administered at different doses (from 1 to 25 mg/kg) starting the same day of immunization up to 26 days post immunization (d.p.i.). Sham treated EAE mice (thereafter referred as untreated-EAE) and healthy control mice (thereafter referred as HC) were used as controls. […]"}, "[8]": {"test_system": "spinal cord of EAE mice", "assay": "Histological evaluation of spinal cord of EAE mice", "format": "in vivo, C57BL/6 mice", "protocol": "At least 5 mice per group were transcardially perfused through the left cardiac ventricle with saline, plus EDTA 0.5 M for 5-10 min followed by fixation with cold 4% paraformaldehyde (PFA) (Sigma, St Louis, Mo.) in 0.1 M phosphate buffer (pH 7.4). Subsequently, spinal cords and brains were carefully dissected out and post-fixed in 4% PFA for 3-4 h and processed for paraffin embedding. The quantification of neurological damage was performed on 5 µm paraffin CNS sections obtained from HC, LQ-EAE mice, and untreated-EAE mice. Three different staining were used to detect inflammatory infiltrates (H&E), demyelination (Luxol fast blue) and axonal damage (Bielshowsky). Imunohistochemistry for CD3 (pan-T cell marker, Serotec Ltd, Oxford, UK), and BS-I isolectin B4 (biotinilated from Sigma, St Louis, Mo.) was performed to investigate T cells and macrophages within the inflammatory cellular infiltrates, respectively. […] Neuropathological findings were quantified on an average of 18-20 complete cross-sections of spinal cord per mouse taken at 8 different levels of the spinal cord. The number of perivascular inflammatory infiltrates were calculated and expressed as the numbers of inflammatory infiltrates per mm^2, demyelinated areas and axonal loss were expressed as percentage of damaged area per mm2. The number of T cells and macrophages lining within the subarachnoid space or infiltrating the CNS parenchyma was calculated and expressed as the number of cells per mm2. An Olympus microscope for the acquisitions of pictures was used. Statistical analysis was performed using the unpaired Student's t-test."}, "[9]": {"test_system": "DAT-CI mice", "assay": "Mouse model of ADHD (DAT-CI mice)", "format": "in vivo", "source_text": "DAT cocaine-insensitive (DAT-CI) mice have a triple point-mutation in the cocaine-binding site of the dopamine […] (DAT) gene. The behavior of DAT-CI mice mimics human ADHD behavior. As previously described, the sensitivity of CB1 receptors controlling GABA-mediated synaptic currents in the striatum of DAT-CI mice was completely lost. ([…] et al., 2011)."}, "[10]": {"conditions": "LQ 1 μM, 12 minutes, compared to pre-drug values, first mention"}, "[11]": {"conditions": "LQ 1 μM bath application, control neurons"}, "[12]": {"conditions": "LQ 1 μM, 12 minutes, control neurons, compared to pre-drug values, second mention"}, "[13]": {"conditions": "LQ-EAE vs control, dose dependent"}}, "note": "Where two headings read alike, the source gives them in different places."}
{"molecule": "CCCCCCC(C)(C)c1cc(O)c2c(c1)OC(C)(C)[C@@H]1CC=C(CO)C[C@@H]21", "note": "[HU210]", "values": [{"measurement": "sIPSC frequency during HU210, respect to pre-drug values", "setting": "[1]; control slices, 10 min, n=8", "result": "76±3", "unit": "%"}, {"measurement": "sIPSC frequency during HU210, respect to pre-drug values", "setting": "[1]; striatal neurons from untreated EAE mice, n=10", "result": "101±3", "unit": "%"}]}
{"molecule": "N#Cc1cc2[nH]c(=O)c(=O)[nH]c2cc1[N+](=O)[O-]", "note": "[CNQX]", "values": [{"measurement": "blockade of sEPSCs", "setting": "[2]; recorded in the presence of LQ, n=5, CNQX 10 μM", "result": "fully blocked"}]}
{"molecule": "CCN(C(=O)c1c(O)c2c(Cl)cccc2n(C)c1=O)c1ccccc1", "note": "[LQ, N-ethyl-N-phenyl-1,2-dihydro-4-hydroxy-5-chloro-1-methyl-2-oxoquinoline-3-carboxamide]", "values": [{"measurement": "frequency of sEPSCs", "setting": "[3]", "result": "3.4±0.4", "unit": "Hz"}, {"measurement": "amplitude of sIPSCs", "setting": "[4]; LQ 1 μM bath application", "result": "failed to alter"}, {"measurement": "frequency of sIPSCs", "setting": "[4]; LQ 1 μM bath application", "result": "failed to alter"}, {"measurement": "sIPSC decay time", "setting": "[4]; [10]", "result": "98±3", "unit": "%"}, {"measurement": "sIPSC rise time", "setting": "[4]; [10]", "result": "101±2", "unit": "%"}, {"measurement": "amplitude of sEPSCs", "setting": "[2]; [11]", "result": "failed to alter"}, {"measurement": "frequency of sEPSCs", "setting": "[2]; [11]", "result": "failed to alter"}, {"measurement": "sIPSC decay time", "setting": "[2]; [12]", "result": "101±2", "unit": "%"}, {"measurement": "sIPSC rise time", "setting": "[2]; [12]", "result": "99±1", "unit": "%"}, {"measurement": "sEPSC amplitude", "setting": "[2]; LQ 10-30 μM bath application, control neurons, n=10", "result": "reducing sEPSC amplitude"}, {"measurement": "frequency of sEPSCs, respect to pre-drug values", "setting": "[2]; highest concentration of LQ, n=7", "result": "83±2.7", "unit": "%"}, {"measurement": "result in human ADHD subjects", "setting": "[5]", "result": "alleviation of inattention, hyperactivity or impulsivity"}, {"measurement": "sIPSC frequency during HU210, respect to pre-drug values", "setting": "[1]; striatal neurons from LQ-EAE mice (25 mg/kg), n=10", "result": "75±3", "unit": "%"}, {"measurement": "result in rat model of ADHD", "setting": "[6]", "result": "positive results"}, {"measurement": "effect on EAE clinical course", "setting": "[7]", "result": "significantly suppresses EAE in a dose-dependent manner"}, {"measurement": "Demyelination", "setting": "[8]; [13]", "result": "reduced"}, {"measurement": "axonal loss", "setting": "[8]; [13]", "result": "reduced"}, {"measurement": "number of T lymphocytes (CD3+) in cellular infiltrates", "setting": "[8]; LQ-EAE vs untreated-EAE mice", "result": "diminished number"}, {"measurement": "number of microglia/macrophages (Isolectin B4+) in cellular infiltrates", "setting": "[8]; LQ-EAE vs untreated-EAE mice", "result": "diminished number"}, {"measurement": "numbers of infiltrates within spinal cord sections", "setting": "[8]; LQ-EAE vs untreated-EAE mice", "result": "reduction in numbers of infiltrates"}, {"measurement": "sensitivity of CB1 receptors to CB1 receptor agonist HU210", "setting": "[9]; DAT-CI mice", "result": "restored sensitivity"}, {"measurement": "locomotor activity", "setting": "[9]; DAT-CI mice compared to control mice", "result": "decreased locomotor activity"}]}
